One compound from US8263344B2, “Compounds regulating calreticulin, KDEL receptor and/or Erp-57 cell surface exposure and uses thereof to evaluate the efficiency of a cancer treatment” (Institut Gustave Roussy, priority 2006, dated 2012) can be followed below.

One test concerns HeLa cells. In words: Surface ERp57 detection (immunofluorescence, flow cytometry). The format is cell-based, human. Conditions: 2 h; MTX 1 μM, Tau 150 nM. The procedure:
HeLa cells were cultured on cover slips (in RPM1160 medium supplemented with 10% fetal calf serum, L-glutamine and antibiotics), in the absence (control) or in the presence of 1 μM mitoxantrone (MTX, Sigma) for 2 h. For the intracellular stainings, HeLa cells were fixed and permeabilised by means of Cytofix/Cytoperm kit from Becton Dickinson according to the manufacturer's instructions. For the surface stainings, HeLa cells were fixed with paraformadehyde (4% w/v) on ice for 5 min. […] Nuclei were labelled with DAPI mounting medium (Vectashield). Fluorescence microscopy was analyzed with a Leica IRE2 equipped with a DC300F camera. Size bars represent 10 μm.
HeLa cells were treated with or without mitoxantrone (MTX, 1 μM) or tautomycin (Tau, 150 nM, Sigma) for 2 h. Cells were washed twice with PBS and fixed in PFA (4% w/v) for 5 min. HeLa cells were stained with an antibody against Erp57 (pAb from Abcam, ab10827) at 1:200 dilution or isotype control, in staining buffer (PBS, 1% FCS) for 30 min on ice, followed by washing. An anti-rabbit Alexa fluor 488 immunoglobulin conjugate (Molecular Probes-Invitrogen) diluted at 1:500 was added for an additional 30 min on ice before washing and analysed by flow cytometry (FACScan, Becton Dickinson). […] The CellQuest software was used to analyse the mean fluorescence intensity (MFI) and the percentage of ERp57 positive cells.
FIG. 12: ERp57 exposure depends on the activation of a caspase. • (A) HeLa cells were treated with MTX (1 μM) for 2 h in the presence or absence of 50 μM zVAD.fmk. The MFI of surface Erp57 positive cells was analysed as described in FIG. 9. • (B) HCT116 parental cells stably transfected with either a vector encoding p35 (Stennicke et al., 2002; Date et al., 2003) or with a PCMV vector (Sigma) as control, were treated with MTX (1 μM) for 2 h. The MFI of surface Erp57 positive cells was analysed as described in FIG. 9. • (C) HCT116 cells were pre-incubated in the presence of 50 μM biotinylated VAD.fmk (Calbiochem) for 2 h. […]
Background: In flow cytometry, cells or beads pass a laser one at a time.

Test [1] relates to CT26 tumours. In words: Single intratumoural injection into established CT26 tumours, athymic mice. Set-up: species or system nu/nu Balb/c mice. Particulars: mouse, in vivo.
Another test relates to HeLa, A549, HCT116. In words: CRT exposure on a panel of human tumour cell lines. The format is cell-based.
The subject of another test is CT26 cells. The test is described as follows: Phagocytosis of tumour cells by dendritic cells (DC). The format is cell-based, BALB/c mice. Conditions: within a few hours after treatment. The procedure:
BM cells were flushed from the tibias and femurs of BALB/c mice with culture medium composed of RPMI 1640 medium (Invitrogen Life Technologies) supplemented with 10% heat-inactivated FBS (Invitrogen), sodium pyruvate, 50 μM 2-ME (Sigma), 10 mM HEPES (pH 7.4), and penicillin/streptomycin (Invitrogen). After one centrifugation, BM cells were resuspended in Tris-ammonium chloride for 2 min to lyse RBC. After one more centrifugation, BM cells (1×10^6 cells/ml) were cultured in medium supplemented with 100 ng/ml recombinant mouse FLT3 ligand (R&D systems) in 6-well plates (Costar Corning). After 7 days, the non-adherent and loosely adherent cells were harvested with Versene, washed and transferred in 12-well plates (1.5×10^6 cells/plate) for cocultures with tumour cells.
In 12-well plates, […] adherent CT26 cells were labelled with Celltracker Green (Calbiochem) and then incubated with drugs. In some experiments viable CT26 were coated with 2 μg/10^6 cells of chicken anti-CRT antibody (ABR affinity bioreagents) or an isotype control for 30 min prior to washing and feeding to dendritic cells Cs. Alternatively CT26 cells were coated with 2 μg/10^6 cells of rCRT on ice for 30 min and washed twice prior to addition to dendritic cells. Cells were then harvested, washed three times with medium supplemented with FBS and cocultured with immature DC for 2 hours at a ratio of 1:1 and 1:5. At the end of the incubation, cells were harvested with versene, pooled with non-adherent cells present in the supernatant, washed and stained with CD11c-FITC antibody. Phagocytosis was assessed by FACS analysis of double positive cells. Phagocytic indexes refer to the ratio between values obtained at 4° C. and values obtained at 37° C. of co-incubation between DC and tumour cells.

The next test relates to CT26 cytoplasts. The test is described as follows: CRT exposure on enucleated cells (cytoplasts). The format is cell-based, murine. The procedure:
FIG. 5A: CRT exposure after anthracyclin treatment in the absence of a nucleus. Intact cells or enucleated cells (cytoplasts) were treated for 2 hours with mitoxantrone, followed by immunofluorescence detection of CRT exposure. Inserts show the effective removal of Hoechst 33342-stainable nuclei from the cytoplasts.
Trypsinized CT26 cells were enucleated as described in the publication of Andreau, K. et al. Contagious apoptosis facilitated by the HIV-1 envelope. Fusion-induced cell-to-cell transmission of a lethal signal. J. Cell Sci. 117, 5643-53 (2004). Briefly, cells were treated in 2 ml of complete RPMI medium containing cytochalasin B (10 μg/ml; Sigma) and DNase I (80 U/ml; Sigma). Cell suspension was adjusted to a final concentration of 5×10^6/ml and incubated at 37° C. for 45 minutes before being layered onto a previously prepared discontinuous Ficoll (Pharmacia) density gradient (3 ml of 100%, in 1 ml of 90% and 3 ml of 55% Ficoll Paque layer containing 5 μg/ml cytochalasin B and 40 U/ml DNase I; gradients were prepared in ultracentrifuge tubes and pre-equilibrated at 37° C. in a CO2 incubator overnight). […] Then the cell surface CRT was detected (see materials and methods) and the viability was determined by with propidium iodine staining (2 μg/ml, Sigma) for 5 min followed by cytofluorometric analysis. […] Phagocytosis was assessed by FACS analysis of double positive cells.

The subject of test [2] is CT26 tumours. The test is described as follows: Single intratumoural injection into established CT26 tumours, immunocompetent mice. The format is in vivo, BALB/c mice. Conditions: established 14-day-old CT26 tumours.
A further test has as its system MCA205, B16F10, J558. In words: CRT exposure on a panel of murine tumour cell lines. The format is cell-based.
In a further test the test system is CT26 tumour cells. The test is described as follows: Anti-tumour vaccination with treated (dying) CT26 cells and challenge with live tumour cells. The format is in vivo, BALB/c mice. Conditions: dying CT26 cells injected into one flank, rechallenge with live tumour cells in opposite flank 8 days later.

Structures are written as SMILES.

Regarding `O=C1c2c(O)ccc(O)c2C(=O)c2c(NCCNCCO)ccc(NCCNCCO)c21` [mitoxantrone], in the test with HeLa cells, the “surface exposure of ERp57” value was “appear on the surface”. Besides, the “therapeutic effect of intratumoural injection, single agent, nu/nu mice” value in the test with CT26 tumours [1] was “no cure”. Besides, the “CRT exposure, human tumour cell lines” value in the test on HeLa, A549, HCT116 is “induced CRT exposure”. Moreover, the “phagocytosis of treated tumour cells by DC” value with CT26 cells is “acquired the property to be phagocytosed by DC”. Moreover, the “time to CRT exposure in enucleated cells (cytoplasts)” value in the test on CT26 cytoplasts is at most 1 h. For the same compound, in the test on CT26 tumours [2], the “therapeutic effect of intratumoural injection, single agent, immunocompetent mice” value is “permanent regression in some but not all cases”. In addition, the “CRT exposure, murine tumour cell lines” value in the test on MCA205, B16F10, J558 is on record as “induced CRT exposure”. Also, the “immunogenic apoptosis / immunogenic cell death (protection against tumour growth)” value in the test with CT26 tumour cells is given as “elicited immunogenic cell death”.
